In patent US20160213041A1, “NUTRITIONAL COMPOSITION HAVING LIPOPHILIC COMPOUNDS WITH IMPROVED SOLUBILITY AND BIOAVAILABILITY” (ABBOTT LABORATORIES, priority 2013, published 2016):

Legend:
[1] = Centrifugation/ultrafiltration analysis of lutein and MDG in MDG batches (Example 60); format: physicochemical; conditions: centrifugation at 1,000×g, samples with NFDM
Procedure: A study was conducted to further investigate the distribution of lutein and MDG within the nutritional composition. Samples included MDG/lutein/water; MDG/lutein/NFDM/water; MDG/lutein/WPC/water; and MDG/water.
The premixes were provided as follows: in samples that contained lutein, lutein was heated for 2 h at 50° C. with shaking. […] In samples that contained protein, non-fat dried milk was added to water (50-60° C.) with agitation and allowed to hydrate for approximately 10 min.
The samples were prepared as follows: for solution 1, water was heated to 50-60° C., an lutein in GMO-40 blend and turrax (30 sec 10000 rpm) was added; for solution 2, NFDM was placed in water solution heated to 50-60° C., and lutein was added in GMO-40 blend and turrax (30 sec 10000 rpm); for solution 3, water was heated to 50-60° C., and GMO-40 blend and turrax (30 sec 10000 rpm) was added. The solutions are listed in the table below as X.1, wherein 1 is the solution.
Samples were formulated as detailed above, and then characterized by ultrafiltration with various membranes, as well as ultracentrifuged at various times and speed (e.g., 100,000×g, 4,500×g, and 1,000×g). The details of the different centrifugation/filtration method are listed below. […]

[2] = Distribution of lutein and MDG over cream, aqueous and pellet layers after 100,000×g (Example 58); format: physicochemical; conditions: 100,000×g for 1 hour
Procedure: A study was conducted to investigate the distribution of lutein and MDG within the nutritional compositions. Sample were prepared using homogenization at 150/20 bar, and then centrifuged at 100,000×g for 1 hour. The different layers (e.g., cream, aqueous, and pellet) were then analyzed for the presence of lutein and MDG.

[3] = 33° C.; cited from earlier work

lutein found in the aqueous phase [1] [%]	lutein contained in the pellet [2]	present in the aqueous phase following centrifugation ([2]; nutritional compositions comprising MDG, of the nutritional composition)	Compound	reported solubility limit in water [3] [mg/kg]
~20	approximately 1%	approximately 4 wt %	CC1=C[C@H](O)CC(C)(C)[C@H]1/C=C/C(C)=C/C=C/C(C)=C/C=C/C=C(C)/C=C/C=C(C)/C=C/C1=C(C)C[C@@H](O)CC1(C)C [lutein]	–
–	–	–	vitamin E	20.9
